Data taken from patent US11505811B2, “Method for the preparation of 2,4-dihydroxybutyrate” (ADISSEO FRANCE S.A.S., priority 2012, dated 2022).
Changes are numbered by the printed parent chain. Read-outs that look alike come from different tables or passages of the source.

Legend:
Assay type in all cases: biochemical
[1] = target: T1, Escherichia coli malate dehydrogenase Ec-Mdh variant R81A M85E, SEQ ID No. 106 (Escherichia coli, UniProt P61889, M85E/R81A); experiment: OHB/oxaloacetate reductase assay, Ec-Mdh R81A M85E; details: pH 7, 37° C.
T1 sequence (P61889 1-312 R81A/M85E): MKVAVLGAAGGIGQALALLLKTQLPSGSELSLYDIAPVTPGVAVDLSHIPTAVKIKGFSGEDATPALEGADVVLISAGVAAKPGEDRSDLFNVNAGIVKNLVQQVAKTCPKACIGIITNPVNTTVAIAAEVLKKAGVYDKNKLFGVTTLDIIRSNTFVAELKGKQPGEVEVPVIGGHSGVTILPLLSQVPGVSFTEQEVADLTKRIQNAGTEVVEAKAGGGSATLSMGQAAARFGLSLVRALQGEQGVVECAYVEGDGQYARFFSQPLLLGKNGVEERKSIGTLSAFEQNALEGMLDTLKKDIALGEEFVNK
Experimental: (§1) Enzymatic assays: The reaction mixture contained 60 mM Hepes (pH 7), 50 mM potassium chloride, 5 mM MgCl2, 0.25 mM NADH, (optionally 5 mM fructose-1,6-bisphosphate) (all products from Sigma), and appropriate amounts of purified malate or lactate dehydrogenase or cell extract. Reactions were started by adding appropriate amounts of 2-oxo-4-hydroxybutyrate (OHB), pyruvate, or oxaloacetate (OAA). Enzymatic assays were carried out at 37° C. in 96-well flat bottomed microtiter plates in a final volume of 250 μL. The reactions were followed by the characteristic absorption of NADH at 340 nm (εNADH=6.22 mM^−1 cm^−1) in a microplate reader (BioRad 680XR).
(§2) Site-directed mutagenesis of the mdh gene from E. coli was carried out as described in Example 2 using the primers listed in Table 5. Plasmid pET28-Ec-mdh was used as the template.
(§3) Mutant enzymes were expressed, purified and tested for OHB and oxaloacetate reductase activity as described in Example 1. […] The mutation R81A in Ec-Mdh was combined with additional changes in the protein sequence.

[2] = target: T2, Escherichia coli malate dehydrogenase Ec-Mdh variant R81A 112V, SEQ ID No. 115 (Escherichia coli, UniProt P61889, I12V/R81A); experiment: OHB/oxaloacetate reductase assay, Ec-Mdh R81A 112V; details: pH 7, 37° C.
T2 sequence (P61889 1-312 I12V/R81A): T1 sequence (P61889 1-312 R81A/M85E) with I12V, E85M
Experimental: as §1, §2, §3

[3] = target: T3, Escherichia coli malate dehydrogenase Ec-Mdh variant R81A G179D, SEQ ID No. 112 (Escherichia coli, UniProt P61889, G179D/R81A); experiment: OHB/oxaloacetate reductase assay, Ec-Mdh R81A G179D; details: pH 7, 37° C.
T3 sequence (P61889 1-312 R81A/G179D): T1 sequence (P61889 1-312 R81A/M85E) with E85M, G179D
Experimental: as §1, §2, §3

[4] = target: T4, Escherichia coli malate dehydrogenase Ec-Mdh variant R81A M85Q, SEQ ID No. 104 (Escherichia coli, UniProt P61889, M85Q/R81A); experiment: OHB/oxaloacetate reductase assay, Ec-Mdh R81A M85Q; details: pH 7, 37° C.
T4 sequence (P61889 1-312 R81A/M85Q): T1 sequence (P61889 1-312 R81A/M85E) with E85Q
Experimental: as §1, §2, §3

[5] = target: T5, Escherichia coli malate dehydrogenase Ec-Mdh variant R81A, SEQ ID No. 102 (Escherichia coli, UniProt P61889, R81A); experiment: OHB/oxaloacetate reductase assay, Ec-Mdh R81A; details: pH 7, 37° C.
T5 sequence (P61889 with tags, fused parts or gaps R81A): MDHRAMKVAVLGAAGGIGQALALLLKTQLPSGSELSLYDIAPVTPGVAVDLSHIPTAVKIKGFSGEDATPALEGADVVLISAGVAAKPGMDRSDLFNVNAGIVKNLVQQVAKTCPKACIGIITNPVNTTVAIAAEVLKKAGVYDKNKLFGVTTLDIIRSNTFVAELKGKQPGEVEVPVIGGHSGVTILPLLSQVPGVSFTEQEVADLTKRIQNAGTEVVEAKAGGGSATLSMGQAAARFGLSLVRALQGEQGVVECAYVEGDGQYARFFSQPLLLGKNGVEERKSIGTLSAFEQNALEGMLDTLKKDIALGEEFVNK
Experimental: as §1, §2, §3

[6] = target: T6, Escherichia coli (L)-malate dehydrogenase Ec-Mdh, wild type, SEQ ID NO: 2 (Escherichia coli, UniProt P61889); experiment: OHB/oxaloacetate reductase assay (NADH oxidation at 340 nm), Ec-Mdh wild type; details: Table 6; up to 50 mM OHB; pH 7, 37° C., 0.25 mM NADH
T6 construct: made in house; host or cells: E. coli BL21 (DE3) star
T6 sequence (P61889 1-312): T1 sequence (P61889 1-312 R81A/M85E) with A81R, E85M
From the text: The genes coding for (L)-malate dehydrogenase in Escherichia coli, Ec-mdh (SEQ ID NO: 1), (D)-lactate dehydrogenase in E. coli, Ec-ldhA (SEQ ID NO: 3), (L)-lactate dehydrogenase of Lactococcus lactis, Ll-ldhA (SEQ ID NO: 5), (L)-lactate dehydrogenase of Bacillus subtilis, Bs-ldh (SEQ ID NO: 7), (L)-lactate dehydrogenase of Geobacillus stearothermophilus, Gs-ldh (SEQ ID NO: 9), the two isoforms of the (L)-lactate dehydrogenase of Oryctalagus cuniculus, Oc-ldhA (SEQ ID NO: 11 and SEQ ID NO: 13), were amplified by PCR using the high-fidelity polymerase Phusion™ (Fermentas) and the primers listed in Table 1. Genomic DNAs of E. coli MG1655, L. lactis IL1403, and B. subtilis strain 168 were used as the template. The genes Oc-ldhA, and Gs-ldh were codon-optimized for expression in E. coli and synthesized by MWG Eurofins. The primers introduced restriction sites (Table 1) upstream of the start codon and downstream of the stop codon, respectively, facilitating the ligation of the digested PCR products into the corresponding sites of the pET28a+ (Novagen) expression vector using T4 DNA ligase (Fermentas). Ligation products were transformed into E. coli DH5a cells (NEB). […]

[7] = target: T7, Escherichia coli malate dehydrogenase Ec-Mdh variant R81A D86S, SEQ ID No. 1114 (Escherichia coli, UniProt P61889, D86S/R81A); experiment: OHB/oxaloacetate reductase assay, Ec-Mdh R81A D86S; details: pH 7, 37° C.
T7 sequence (P61889 1-312 R81A/D86S): T1 sequence (P61889 1-312 R81A/M85E) with E85M, D86S
Experimental: as §1, §2, §3

[8] = target: T8, Escherichia coli malate dehydrogenase Ec-Mdh variant R81A M85E I12V, SEQ ID No. 110 (Escherichia coli, UniProt P61889, I12V/M85E/R81A); experiment: OHB/oxaloacetate reductase assay, Ec-Mdh R81A M85E I12V; details: pH 7, 37° C.
T8 sequence (P61889 1-312 I12V/R81A/M85E): T1 sequence (P61889 1-312 R81A/M85E) with I12V
Experimental: as §1, §2, §3

[9] = target: T9, Escherichia coli malate dehydrogenase Ec-Mdh variant R81A M85Q I12V, SEQ ID No. 108 (Escherichia coli, UniProt P61889, I12V/M85Q/R81A); experiment: OHB/oxaloacetate reductase assay, Ec-Mdh R81A M85Q I12V; details: up to 0.5 mM oxaloacetate; pH 7, 37° C.; read-out: Km (OAA)
T9 sequence (P61889 1-312 I12V/R81A/M85Q): T1 sequence (P61889 1-312 R81A/M85E) with I12V, E85Q
Experimental: as §1, §2, §3

[10] = up to 50 mM OHB, read-out: Km (OHB)
[11] = up to 0.5 mM oxaloacetate, read-out: Km (OAA)

| Compound | Km [1, 10] [mM] | Km [2, 10] [mM] | Km [3, 10] [mM] | Km [4, 10] [mM] | Km [5, 10] [mM] | Km [6] [mM] | Km [7, 10] [mM] | Km [8, 10] [mM] | Km [1, 11] [mM] | Km [2, 11] [mM] | Km [3, 11] [mM] | Km [9] [mM] | Km [4, 11] [mM] | Km [5, 11] [mM] | Km [7, 11] [mM] | Km [8, 11] [mM] |
| --- | --- | --- | --- | --- | --- | --- | --- | --- | --- | --- | --- | --- | --- | --- | --- | --- |
| O=C(O)C(=O)CCO [OHB, 2-oxo-4-hydroxybutyrate] | > 50 | > 50 | > 50 | > 50 | > 50 | > 50 | > 50 | > 50 |  |  |  |  |  |  |  |  |
| O=C(O)CC(=O)C(=O)O [oxaloacetate, reference compound] |  |  |  |  |  |  |  |  | > 0.5 | > 0.5 | > 0.5 | > 0.5 | > 0.5 | > 0.5 | > 0.5 | > 0.5 |
